ChEMBL document CHEMBL4041523, “Design, synthesis, and evaluation of asymmetric EF24 analogues as potential anti-cancer agents for lung cancer” (Eur J Med Chem, 2017)
Each block holds one compound with its values, some of them ahead of it. Calls of active or inactive are those of the source. No cut-off for these calls is given here.

Legend:
[1] = system: Lewis lung carcinoma cell line; experiment: Cytotoxicity against mouse LLC cells measured after 72 hrs by MTT assay; format: functional, cell-based
A549 [2] = experiment: Cytotoxicity against human A549 cells measured after 72 hrs by MTT assay; format: functional, cell-based; settings: for IC50: A549, 72 h
NCI-H1650 = experiment: Cytotoxicity against human NCI-H1650 cells measured after 72 hrs by MTT assay; format: functional, cell-based; settings: NCI-H1650, 72 h
A549 [3] = experiment: Induction of apoptosis in human A549 cells at 20 uM measured after 48 hrs by Annexin-V-FITC/propidium iodide staining based flow cytometry (reference value: 5.91 %); format: functional
A549 [4] = experiment: Induction of apoptosis in human A549 cells assessed as increase in Bax expression at 10 uM in presence of ROS inhibitor NAC measured after 24 hrs Western blot analysis; format: functional, cell-based
A549 [5] = experiment: Induction of apoptosis in human A549 cells assessed as cell shrinkage measured after 72 hrs by Hoechst 33258 staining based fluorescent microscopic analysis; format: functional
[6] = target: T1, c-Jun N-terminal kinase, JNK (Homo sapiens) (UniProt P45983+P53779+P45984); experiment: Induction of ROS-induced JNK phosphorylation in human A549 cells at 10 uM measured after 24 hrs by Western blot analysis; format: cell-based
[7] = target: T1, c-Jun N-terminal kinase, JNK (Homo sapiens); experiment: Induction of ROS-induced JNK phosphorylation in human A549 cells at 10 uM in presence of ROS inhibitor NAC measured after 24 hrs Western blot analysis; format: cell-based
A549 [8] = experiment: Induction of apoptosis in human A549 cells assessed as reduction in Bcl-2 expression at 10 uM measured after 24 hrs Western blot analysis; format: functional, cell-based
A549 [9] = experiment: Induction of apoptosis in human A549 cells at 5 uM measured after 48 hrs by Annexin-V-FITC/propidium iodide staining based flow cytometry (reference value: 5.91 %); format: functional
A549 [10] = experiment: Induction of apoptosis in human A549 cells assessed as increase in cleaved caspase-3 level at 20 uM measured after 24 hrs by Western blot analysis; format: functional, cell-based
A549 [11] = experiment: Anti-migratory activity against human A549 cells assessed as reduction in cell migration at 20 uM measured after 24 to 72 hrs by wound healing assay relative to control; format: functional; set-up: scale not given: the % may be the effect or the level left
A549 [12] = experiment: Induction of apoptosis in human A549 cells assessed as increase in Bax expression at 10 uM measured after 24 hrs Western blot analysis; format: functional, cell-based
A549 [13] = experiment: Induction of apoptosis in human A549 cells assessed as increase in ROS production at 10 uM by DCFH-DA staining based flow cytometry; format: functional, cell-based; settings: TDE = time-dependent effect
A549 [14] = experiment: Induction of apoptosis in human A549 cells assessed as ROS production at 10 uM in presence of ROS inhibitor NAC measured after 12 hrs by DCFH-DA staining based flow cytometry (reference value: 7.19 %); format: functional
A549 [15] = experiment: Induction of apoptosis in human A549 cells assessed as ROS production at 10 uM measured after 12 hrs by DCFH-DA staining based flow cytometry (reference value: 7.19 %); format: functional
[16] = target: T2, NF-kappa-B inhibitor alpha (Homo sapiens) (UniProt P25963); experiment: Inhibition of TNF-alpha induced IkappaBalpha degradation in human A549 cells measured after 24 hrs by Western blot analysis; format: cell-based
T2 sequence (whole entry): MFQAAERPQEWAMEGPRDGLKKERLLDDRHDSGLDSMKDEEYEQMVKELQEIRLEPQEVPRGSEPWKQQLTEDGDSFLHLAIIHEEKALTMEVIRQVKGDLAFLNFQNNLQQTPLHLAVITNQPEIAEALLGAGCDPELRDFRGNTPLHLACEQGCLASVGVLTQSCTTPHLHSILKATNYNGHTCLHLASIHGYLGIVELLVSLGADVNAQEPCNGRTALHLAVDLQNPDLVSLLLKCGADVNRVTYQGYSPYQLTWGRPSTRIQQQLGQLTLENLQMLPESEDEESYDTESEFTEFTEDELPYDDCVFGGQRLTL

A549 [17] = experiment: Induction of apoptosis in human A549 cells assessed as chromatin condensation measured after 72 hrs by Hoechst 33258 staining based fluorescent microscopic analysis; format: functional, cell-based
A549 [18] = experiment: Induction of apoptosis in human A549 cells assessed as reduction in Bcl-2 expression measured after 24 hrs by Western blot analysis; format: functional, cell-based
A549 [19] = experiment: Antiproliferative activity against human A549 cells assessed as reduction in colony formation measured after 7 days by crystal violet staining based assay; format: functional, cell-based
[20] = target: Transcription factor p65 (Homo sapiens) (UniProt Q04206); experiment: Inhibition of TNF-alpha stimulated P65 nuclear translocation in human A549 cells at 10 uM pretreated for 2 hrs followed by TNF-alpha induction measured after 20 mins DAPI-staining based assay; format: cell-based
Sequence of Transcription factor p65 (Homo sapiens) (Q04206 whole entry): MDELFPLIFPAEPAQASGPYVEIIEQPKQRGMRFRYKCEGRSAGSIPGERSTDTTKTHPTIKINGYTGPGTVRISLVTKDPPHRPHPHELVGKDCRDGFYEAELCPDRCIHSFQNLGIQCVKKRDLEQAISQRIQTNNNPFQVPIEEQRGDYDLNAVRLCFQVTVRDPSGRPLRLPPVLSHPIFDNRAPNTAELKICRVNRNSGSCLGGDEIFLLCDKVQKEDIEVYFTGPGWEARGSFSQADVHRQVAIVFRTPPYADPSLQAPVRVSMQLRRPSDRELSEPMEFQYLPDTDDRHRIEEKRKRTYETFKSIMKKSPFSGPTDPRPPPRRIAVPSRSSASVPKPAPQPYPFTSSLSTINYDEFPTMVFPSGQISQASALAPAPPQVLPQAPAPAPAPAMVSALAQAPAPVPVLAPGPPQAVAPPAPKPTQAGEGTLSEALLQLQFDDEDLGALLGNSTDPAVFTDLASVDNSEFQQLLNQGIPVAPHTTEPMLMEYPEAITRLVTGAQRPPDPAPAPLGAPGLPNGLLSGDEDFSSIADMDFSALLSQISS

A549 [21] = experiment: Anti-migratory activity against human A549 cells assessed as reduction in cell migration measured after 24 to 72 hrs by wound healing assay; format: functional, cell-based
A549 [22] = experiment: Induction of apoptosis in human A549 cells assessed as increase in Bax expression measured after 24 hrs by Western blot analysis; format: functional, cell-based
A549 [23] = experiment: Induction of apoptosis in human A549 cells measured after 48 hrs by Annexin-V-FITC/propidium iodide staining based flow cytometry; format: functional, cell-based
A549 [24] = experiment: Induction of apoptosis in human A549 cells at 10 uM measured after 48 hrs by Annexin-V-FITC/propidium iodide staining based flow cytometry (reference value: 5.91 %); format: functional
A549 [25] = experiment: Induction of apoptosis in human A549 cells assessed as formation of apoptotic bodies measured after 72 hrs by Hoechst 33258 staining based fluorescent microscopic analysis; format: functional, cell-based
A549 [26] = experiment: Induction of apoptosis in human A549 cells assessed as reduction in Bcl-2 expression at 10 uM in presence of ROS inhibitor NAC measured after 24 hrs Western blot analysis; format: functional, cell-based
A549 [27] = experiment: Anti-migratory activity against human A549 cells assessed as reduction in cell migration at 10 uM measured after 24 to 72 hrs by wound healing assay relative to control; format: functional; set-up: scale not given: the % may be the effect or the level left
A549 [28] = experiment: Anti-migratory activity against human A549 cells assessed as reduction in cell migration at 5 uM measured after 24 to 72 hrs by wound healing assay relative to control; format: functional; set-up: scale not given: the % may be the effect or the level left

Compound: COc1ccc(/C=C2\COC/C(=C\c3ccccc3F)C2=O)cc1O
- IC50 [1]: 9.6 µM
- IC50 (A549 [2]): 13.8 µM
- IC50 (NCI-H1650): 7.5 µM

Compound: COc1cc(/C=C/C(=O)CC(=O)/C=C/c2ccc(O)c(OC)c2)ccc1O [CURCUMIN]
- IC50 [1]: 24.7 µM
- IC50 (A549 [2]): 27.8 µM
- IC50 (NCI-H1650): 20.7 µM

Compound: O=C1/C(=C/c2ccccc2F)COC/C1=C\c1ccccc1C(=O)O
- IC50 [1]: 17.2 µM
- IC50 (A549 [2]): 27.9 µM
- IC50 (NCI-H1650): 15.2 µM

Compound: Cc1ccc2nc(NCCN)c3ncc(C)n3c2c1 [BMS-345541]
- Activity (A549 [3]): 16.57%
- IC50 [1]: 4.8 µM
- IC50 (A549 [2]): 5.6 µM
- IC50 (NCI-H1650): 19.9 µM

Compound: O=C1/C(=C/c2cccc(O)c2)COC/C1=C\c1ccccc1F
- IC50 [1]: 13.8 µM
- IC50 (A549 [2]): 7.4 µM
- IC50 (NCI-H1650): 5.7 µM

Compound: COc1ccccc1/C=C1\COC/C(=C\c2ccccc2F)C1=O
- IC50 [1]: 15.4 to 17.7 µM
- IC50 (A549 [2]): 5.9 to 11.7 µM
- IC50 (NCI-H1650): 6.5 to 17.6 µM

Compound: COc1ccc(OC)c(/C=C2\COC/C(=C\c3ccccc3F)C2=O)c1
- IC50 [1]: 15.1 µM
- IC50 (A549 [2]): 8.7 µM
- IC50 (NCI-H1650): 6.8 µM

Compound: O=C1/C(=C/c2ccccc2F)CNC/C1=C\c1ccccc1F
- IC50 [1]: 8.4 µM
- IC50 (A549 [2]): 7.1 µM
- IC50 (NCI-H1650): 14.6 µM

Compound: COc1cc(/C=C2\COC/C(=C\c3ccccc3F)C2=O)ccc1O
- IC50 [1]: 13.1 µM
- IC50 (A549 [2]): 21.4 µM
- IC50 (NCI-H1650): 18.5 µM

Compound: O=C1/C(=C/c2ccccc2F)COC/C1=C\c1ccccc1Br
- IC50 [1]: 13.3 µM
- IC50 (A549 [2]): 6.5 µM
- IC50 (NCI-H1650): 6.5 µM

- Activity [6]: Active
- Activity [7]: inactive
- inhibition [16]: Dose-dependent effect
- inhibition [20]: Active
Compound: COc1cc(/C=C2\COC/C(=C\c3ccccc3F)C2=O)cc(OC)c1OC
- Activity (A549 [4]): inactive
- Activity (A549 [5]): Dose-dependent effect
- Activity (A549 [8]): Active
- Activity (A549 [9]): 6.55%
- Activity (A549 [10]): Active
- Activity (A549 [11]): 37.9%
- Activity (A549 [12]): Active
- Activity (A549 [13]): Tde
- Activity (A549 [3]): 20.4%
- IC50 [1]: 6.1 µM
- Activity (A549 [14]): 5.19%
- Activity (A549 [15]): 9.81%
- Activity (A549 [17]): Dose-dependent effect
- Activity (A549 [18]): Dose-dependent effect
- Activity (A549 [19]): Dose-dependent effect
- Activity (A549 [21]): Dose-dependent effect
- Activity (A549 [22]): Dose-dependent effect
- Activity (A549 [23]): Dose-dependent effect
- Activity (A549 [24]): 9.26%
- Activity (A549 [25]): Dose-dependent effect
- Activity (A549 [26]): inactive
- Activity (A549 [27]): 68.7%
- Activity (A549 [28]): 82.2%
- Activity (A549 [2]): Dose-dependent effect
- IC50 (A549 [2]): 6.3 µM
- IC50 (NCI-H1650): 6.8 µM

Compound: O=C1/C(=C/c2ccccc2F)COC/C1=C\c1ccc(Cl)cc1Cl
- IC50 [1]: 29.4 µM
- IC50 (A549 [2]): 7.9 µM
- IC50 (NCI-H1650): 8.6 µM

Compound: O=C1/C(=C/c2ccccc2)COC/C1=C\c1ccccc1F
- IC50 [1]: 16 µM
- IC50 (A549 [2]): 17.6 µM
- IC50 (NCI-H1650): 9.6 µM
